According to ChEMBL document CHEMBL1158190, “New Tetracyclic Sesterterpenes from Cydonia vulgaris” (J Nat Prod, 1996):
Activity calls are given as the source filed them. The rule behind the calls is not given here.

Test system: Human immunodeficiency virus 1
Experiment: Antiviral activity against 10 CCID50 units of HIV1 infected in human C8166 cells at 2.5 ug/mL after 5 to 7 days
Format: functional, organism-based

Compound | Activity
CC(=O)OC[C@]1(O)CC[C@@H]2[C@@]3(C)CCCC(C)(C)[C@@H]3CC[C@@]2(C)[C@H]1CC(O)C1=CC(=O)OC1OC(=O)/C=C/c1ccccc1 (some centres undefined) | inactive
CC(=O)OC[C@]1(O)CC[C@@H]2[C@@]3(C)CCCC(C)(C)[C@@H]3CC[C@@]2(C)[C@H]1CC(O)C1=CC(=O)OC1OC(C)=O (some centres undefined) | inactive
CC1(C)CCC[C@]2(C)[C@H]3CC[C@@](O)(CO)[C@H](CC(O)C4=CC(=O)OC4OC(=O)/C=C/c4ccccc4)[C@]3(C)CC[C@@H]12 (some centres undefined) | inactive
CC(=O)OC1OC(=O)C=C1C(O)C[C@H]1[C@](O)(CO)CC[C@@H]2[C@@]3(C)CCCC(C)(C)[C@@H]3CC[C@]21C (some centres undefined) | inactive
